From US10611750B2, “Tetrahydroquinoline compositions as bet bromodomain inhibitors” (FORMA Therapeutics, Inc., priority 2013, dated 2020)

Assays:
[1] = biological target: T1, BRD4 Bromodomain 2 (BRD4 BD2) (Homo sapiens, UniProt O60885); assay: AlphaScreen binding assay, BRD4 BD2; settings: His-tagged BRD4 BD2 100 nM, biotinylated H4 (1-21) K5/8/12/16 tetra-acetylated peptide 100 nM, compounds listed under IC50 range headings
T1 construct: 333-460 were cloned, expressed, and purified to homogeneity
Procedure: The binding of Example compounds to BRD4 Bromodomain 1 and BRD4 Bromodomain 2 was assessed using 384-well AlphaScreen assay technology. His-epitope tagged BRD4 BD144-168 and BRD4 BD2333-460 were cloned, expressed, and purified to homogeneity. BRD4 BD1 and BRD4 BD2 binding and inhibition was assessed by monitoring the engagement of biotinylated Histone H4 (1-21) K5/8/12/16 tetra-acetylated peptide with the targets using the AlphaScreen technology (PerkinElmer). Specifically, in a 384-well black or white flat bottom plate, BRD4 BD1 (50 nM final) or BRD4 BD2 (100 nM final) was combined with peptide (50 nM final for BD1 or 100 nM final for BD2) in 50 mM HEPES (pH 7.3), 100 mM NaCl, 0.1% (w/v) BSA, and 0.01% (w/v) Triton X-100 either in the presence of DMSO (final 1.25% DMSO) or compound dilution series in DMSO. Alpha streptavidin donor beads and Nickel-chelate acceptor beads were added to a final concentration of 10 μg/ml each. After a minimum of 1 hour equilibration, plates were read on a BMG PHERAstar FS multi-label reader (BMG LabTech). The half maximal inhibitory concentration (IC50) values were calculated using IDBS Activity Base software with a four parameter logistic curve fit by the equation y=A+((B−A)/(1+((C/x)^D))), wherein A denotes the bottom plateau of the curve, B denotes the top plateau of the curve, C denotes the x value at the middle of the curve, D denotes the slope factor, x denotes the original known x values, and y denotes the original known y values. Data was fitted using the Levenburg Marquardt algorithm.

[2] = biological target: T2, BRD4 Bromodomain 1 (BRD4 BD1) (Homo sapiens, UniProt O60885); assay: AlphaScreen binding assay, BRD4 BD1; settings: His-tagged BRD4 BD1 50 nM, biotinylated H4 (1-21) K5/8/12/16 tetra-acetylated peptide 50 nM, compounds listed under IC50 range headings
T2 construct: 44-168 and BRD4 BD2
Procedure, shortened: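 An AlphaScreen competition format was used with His-BRD4 BD1 or BD2 and biotin-H4 K5/8/12/16-acetyl peptide, each at matched final levels of 50 nM (BD1) or 100 nM (BD2). Incubation in HEPES/NaCl buffer with 0.1% BSA and 0.01% Triton X-100 ran ≥1 h before IC50 determination.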

Row | SMILES | IC50 [1] [µM] | IC50 [2] [µM]
1 | COC(=O)N1c2ccc(-c3cnn(C4CC4)c3)c(OCS(N)(=O)=O)c2CC[C@@H]1C [I-28, (S)-methyl 6-(1-cyclopropyl-1H-pyrazol-4-yl)-2-methyl-5-(sulfamoylmethoxy)-3,4-dihydroquinoline-1(2H)-carboxylate] | ≥ 0.5 | 1 to 10
2 | CC(=O)N1c2ccc(-c3cnn(C4CC4)c3)c(OCCN(C)C)c2CC[C@@H]1C [I-386] | ≥ 0.5 | 1 to 10
3 | COC(=O)N1c2ccc(-c3cnn(C4CC4)c3)c(OC3CNC3)c2CC[C@@H]1C [I-59, (S)-methyl 5-(azetidin-3-yloxy)-6-(1-cyclopropyl-1H-pyrazol-4-yl)-2-methyl-3,4-dihydroquinoline-1(2H)-carboxylate] | ≥ 0.5 | 1 to 10
4 | CC(=O)N1c2ccc(-c3ccc(NS(C)(=O)=O)cc3)c(OCC(=O)N(C)C)c2CC[C@@H]1C [I-495] | ≥ 0.5 | 1 to 10
5 | CC(=O)N1c2ccc(-c3cnn(CCO)c3)c(OC[C@H]3CCC(=O)N3)c2CC[C@@H]1C [I-434] | 0.05 to 0.5 | 1 to 10
6 | COC(=O)N1c2ccc(-c3cnn(CCS(C)(=O)=O)c3)c(OCC(=O)N(C)C)c2CC[C@@H]1C [I-452] | 0.05 to 0.5 | 1 to 10
7 | CC(=O)N1c2ccc(-c3cnn(CC(C)(C)O)c3)c(OCCN(C)S(C)(=O)=O)c2CC[C@@H]1C [I-437] | 0.05 to 0.5 | 1 to 10
8 | CC(=O)N1c2ccc(-c3cnn(CCS(C)(=O)=O)c3)c(OCCN(C)S(C)(=O)=O)c2CC[C@@H]1C [I-436] | 0.05 to 0.5 | 1 to 10
9 | CCCOc1c(-c2ccc(C(=O)N3CCOCC3)cc2)ccc2c1CC[C@H](C)N2C(C)=O [I-496] | 0.05 to 0.5 | 1 to 10
10 | CC(=O)N1c2ccc(-c3cnn(C4CC4)c3)c(OC(CF)CF)c2CC[C@@H]1C [I-38, (S)-1-(6-(1-cyclopropyl-1H-pyrazol-4-yl)-5-(1,3-difluoropropan-2-yloxy)-2-methyl-3,4-dihydroquinolin-1(2H)-yl)ethanone] | 0.05 to 0.5 | 1 to 10
11 | COC(=O)N1c2ccc(-c3cnn(CCO)c3)c(OC[C@H]3CCC(=O)N3)c2CC[C@@H]1C [I-469] | 0.05 to 0.5 | 1 to 10
12 | COC(=O)N1c2ccc(-c3cnn(C4CC4)c3)c(OCC(F)(F)F)c2CC[C@@H]1C [I-9, (S)-methyl 6-(1-cyclopropyl-1H-pyrazol-4-yl)-2-methyl-5-(2,2,2-trifluoroethoxy)-3,4-dihydroquinoline-1(2H)-carboxylate] | ≥ 0.5 | ≥ 10
13 | COC(=O)N1c2ccc(-c3cnn(CCO)c3)c(OCCN(C)S(C)(=O)=O)c2CC[C@@H]1C [I-473] | 0.05 to 0.5 | 1 to 10
14 | COc1c(-c2cnn(C3CC3)c2)ccc2c1CC[C@H](C)N2C(C)=O [I-404] | 0.05 to 0.5 | 1 to 10
15 | CC(=O)N1c2ccc(-c3cnn(CC(C)(C)O)c3)c(OCC(=O)N3CCCC3)c2CC[C@@H]1C [I-429] | 0.05 to 0.5 | 1 to 10
16 | CCCOc1c(-c2ccc(N(C)S(C)(=O)=O)cc2)ccc2c1CC[C@H](C)N2C(C)=O [I-502] | 0.05 to 0.5 | 1 to 10
17 | CC(=O)N1c2ccc(-c3ccc(N4CCCS4(=O)=O)cc3)c(OCC(=O)N(C)C)c2CC[C@@H]1C [I-499] | 0.05 to 0.5 | 1 to 10
18 | CC(=O)N1c2ccc(-c3cccc(S(C)(=O)=O)c3)c(OCC(=O)N(C)C)c2CC[C@@H]1C [I-493] | ≥ 0.5 | 1 to 10
19 | CC(=O)N1c2ccc(-c3cnn(C4CC4)c3)c(Oc3ncccc3Cl)c2CC[C@@H]1C [I-87, (S)-1-(5-(3-chloropyridin-2-yloxy)-6-(1-cyclopropyl-1H-pyrazol-4-yl)-2-methyl-3,4-dihydroquinolin-1 (2H)-yl)ethanone] | 0.05 to 0.5 | 1 to 10
20 | CNC(=O)COc1c(-c2cnn(C3CC3)c2)ccc2c1CC[C@H](C)N2C(C)=O [I-383] | 0.05 to 0.5 | 1 to 10
21 | CC(=O)N1c2ccc(-c3cnn(C4CC4)c3)c(OCc3cncs3)c2CC[C@@H]1C [I-406] | 0.05 to 0.5 | 1 to 10
22 | CCCOc1c(-c2ccc(S(C)(=O)=O)cc2)ccc2c1CC[C@H](C)N2C(C)=O [I-482] | ≥ 0.5 | 1 to 10
23 | CC(=O)N1c2ccc(-c3cnn(CCO)c3)c(OC[C@H]3CCNC3)c2CC[C@@H]1C [I-440] | 0.05 to 0.5 | 1 to 10
24 | CC(=O)N1c2ccc(-c3cnn(C4CC4)c3)c(OC3COC3)c2CC[C@@H]1C [I-384] | 0.05 to 0.5 | 1 to 10
25 | CC(=O)N1c2ccc(-c3cnn(C4CC4)c3)c(OCC3CNC3)c2CC[C@@H]1C [I-52, (S)-1-(5-(azetidin-3-ylmethoxy)-6-(1-cyclopropyl-1H-pyrazol-4-yl)-2-methyl-3,4-dihydroquinolin-1 (2H)-yl)ethanone] | ≥ 0.5 | ≥ 10
26 | CC(=O)N1c2ccc(-c3cnn(C4CC4)c3)c(OCc3ccn(C)n3)c2CC[C@@H]1C [I-405] | 0.05 to 0.5 | 1 to 10

Now from value to compound:

Row | IC50 [1] [µM] | IC50 [2] [µM] | SMILES
27 | 0.05 to 0.5 | 1 to 10 | CC(=O)N1c2ccc(-c3cnn(CCS(C)(=O)=O)c3)c(OCC(=O)N(C)C)c2CC[C@@H]1C [I-417]
28 | 0.05 to 0.5 | 1 to 10 | COC(=O)N1c2ccc(-c3cnn(CCS(C)(=O)=O)c3)c(OC[C@H]3CCC(=O)N3)c2CC[C@@H]1C [I-467]
29 | 0.05 to 0.5 | 1 to 10 | CCCOc1c(-c2ccc(S(=O)(=O)CC)cc2)ccc2c1CC[C@H](C)N2C(C)=O [I-484]
30 | 0.05 to 0.5 | 1 to 10 | CC(=O)N1c2ccc(-c3cnn(C4COC4)c3)c(OCc3ccno3)c2CC[C@@H]1C [I-379]
31 | 0.05 to 0.5 | 1 to 10 | COC(=O)N1c2ccc(-c3cnn(CCS(C)(=O)=O)c3)c(OCC(C)C)c2CC[C@@H]1C [I-455]
32 | 0.05 to 0.5 | 1 to 10 | COC(=O)N1c2ccc(-c3cnn(CCS(C)(=O)=O)c3)c(OCC3CCOCC3)c2CC[C@@H]1C [I-448]
33 | 0.05 to 0.5 | 1 to 10 | COC(=O)N1c2ccc(-c3cnn(CC(C)(C)O)c3)c(OCC(=O)N(C)C)c2CC[C@@H]1C [I-453]
34 | 0.05 to 0.5 | 1 to 10 | CCNC(=O)COc1c(-c2cnn(C3CC3)c2)ccc2c1CC[C@H](C)N2C(C)=O [I-4, (S)-2-(1-acetyl-6-(1-cyclopropyl-1H-pyrazol-4-yl)-2-methyl-1,2,3,4-tetrahydroquinolin-5-yloxy)-N-ethylacetamide]
35 | 0.05 to 0.5 | 1 to 10 | COC(=O)N1c2ccc(-c3cnn(CC(C)(C)O)c3)c(OCC(C)C)c2CC[C@@H]1C [I-456]
36 | 0.05 to 0.5 | 1 to 10 | CC(=O)N1c2ccc(-c3cnn(C4CC4)c3)c(OC(C)(C)C(N)=O)c2CC[C@@H]1C [I-40, (S)-2-(1-acetyl-6-(1-cyclopropyl-1H-pyrazol-4-yl)-2-methyl-1,2,3,4-tetrahydroquinolin-5-yloxy)-2-methylpropanamide]
37 | 0.05 to 0.5 | 1 to 10 | COC(=O)N1c2ccc(-c3cnn(CCO)c3)c(OCC3CCOCC3)c2CC[C@@H]1C [I-450]
38 | 0.05 to 0.5 | 1 to 10 | CC(=O)N1c2ccc(-c3ccc(C(=O)N4CCOCC4)cc3)c(OCC(=O)N(C)C)c2CC[C@@H]1C [I-497]
39 | 0.05 to 0.5 | 1 to 10 | CC(=O)N1c2ccc(-c3cnn(C4CC4)c3)c(Oc3nccc(C(F)(F)F)n3)c2CC[C@@H]1C [I-85, (S)-1-(6-(1-cyclopropyl-1H-pyrazol-4-yl)-2-methyl-5-(4-(trifluoromethyl)pyrimidin-2-yloxy)-3,4-dihydroquinolin-1 (2H)-yl)ethanone]
40 | 0.05 to 0.5 | 1 to 10 | CC(=O)N1c2ccc(-c3cnn(C4CC4)c3)c(OCCC(F)(F)F)c2CC[C@@H]1C [I-41, (S)-1-(6-(1-cyclopropyl-1H-pyrazol-4-yl)-2-methyl-5-(3,3,3-trifluoropropoxy)-3,4-dihydroquinolin-1 (2H)-yl)ethanone]
41 | 0.05 to 0.5 | 1 to 10 | CC(=O)N1c2ccc(-c3cnn(C4CC4)c3)c(OCc3cccnc3)c2CC[C@@H]1C [I-399]
42 | 0.05 to 0.5 | 1 to 10 | COC(=O)N1c2ccc(-c3cnn(CCS(C)(=O)=O)c3)c(OCC(=O)N3CCCC3)c2CC[C@@H]1C [I-463]
43 | < 0.05 | 1 to 10 | CC(=O)N1c2ccc(-c3cnn(C4CC4)c3)c(OCc3ccccc3)c2CC[C@@H]1C [I-393]
44 | < 0.05 | 1 to 10 | COC(=O)N1c2ccc(-c3cnn(C4CC4)c3)c(OCCN3CCCS3(=O)=O)c2CC[C@@H]1C [I-27, methyl (2S)-6-(1-cyclopropyl-1H-pyrazol-4-yl)-5-[2-(1,1-dioxo-1λ^6,2-thiazolidin-2-yl)ethoxy]-2-methyl-1,2,3,4-tetrahydroquinoline-1-carboxylate]
